Key:
[1] = system: bradykinin response of isolated guinea pig ileum; test: Anti-bradykinin activity on isolated guinea pig ileum; details: isolated guinea pig ileum; pD2 of bradykinin is 7.4; higher numbers indicate higher potency
Outline: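 Bradykinin concentration-effect curves were run in the absence and presence of compound. Tissue: 25 mm terminal ileum from male Hartley guinea pigs fasted overnight, held at 1 g tension in O2/CO2-bubbled Krebs' solution after 1 h equilibration.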

SCLC strain SHP-77 = test: Colorimetric tetrazolium (MTT) assay for cell survival, SCLC strain SHP-77; assay type: cell-based, human; details: SCLC strain SHP-77 in vitro
Procedure: In general, Anti-bradykinin activity was determined by the classical guinea pig ileum assay and on Chinese hamster ovary (CHO) cells expressing cloned human bradykinin B2 receptors. Anti-tumor activity was determined on cultured human cancer cell lines using the standard tetrazolium (MTT) assay.
Cell growth and survival were measured by a rapid colorimetric assay based on the tetrazolium salt MTT (3-(4,5-dimethylthiazol-2-yl)-2,5-diphenyl tetrazolium bromide) (Mosmann, J Immunol. Methods 65: 55–63, 1983, with minor modifications). Briefly, 1,000 normal lung fibroblasts or normal epithelial BEAS-2B cells, 1,000 or 5,000 viable non-SCLC cells or 10,000 viable SCLC cells were plated in 100 μL of growth medium in 96-well flat-bottomed microtiter plates. Cells were incubated overnight to allow recovery. Compounds to be tested were added to the cells in triplicate in a range of concentrations and the cells were incubated at 37° C., 5% CO2, with 100% humidity. Control cells were treated in the same way without antagonists. […] Plates were incubated for 4 days, allowing sufficient time for cell replication and compound-induced cell death to occur. On day 5, 25 μL of a 2 mg/mL solution of MTT (Sigma) dissolved in RMPI-1640was added to each well. The plate was incubated for 4 h at 37° C. The supernate was removed and the blue formazan complex was dissolved by adding 100 μL of 0.02 N HCl in 75% isopropanol to all wells. Absorbance was immediately determined using a scanning multiwell plate reader. B9870 caused 50% cell death at a concentration of 0.15 μM under these conditions.

| Structure (SMILES) | GPI: pA2 for bradykinin antagonist activity on isolated guinea pig ileum [1] | MTT: ED50 for killing of SCLC strain SHP-77 in vitro (SCLC strain SHP-77) |
| --- | --- | --- |
| CC1(C)CC(NC(=O)[C@H](Cc2ccc3ccccc3c2)NC(=N)CCCCCCCCCCCCC(=N)N[C@@H](Cc2ccc3ccccc3c2)C(=O)NC2CC(C)(C)NC(C)(C)C2)CC(C)(C)N1 [M254] | 5.1 | 5 µM |
| CC1(C)CC(NC(=O)[C@@H](Cc2ccc3ccccc3c2)NC(=NC2CCCCC2)NC2CCCCC2)CC(C)(C)N1 [M262] | 5.3 | 6 µM |
| CC1(C)CC(NC(=O)[C@H](Cc2c[nH]c3ccccc23)NC(=NC2CCCCC2)NC2CCCCC2)CC(C)(C)N1 [M264] | 4.7 | 16 µM |
| CC1(C)CC(NC(=O)Cc2ccc(NC(=NC3CCCCC3)NC3CCCCC3)cc2)CC(C)(C)N1 [M266] | 4.8 | 42 µM |
| CC1(C)C=C(C(=O)NCCNC(=O)C(Cc2ccc3ccccc3c2)NC(=O)C=Cc2c(F)c(F)c(F)c(F)c2F)C(C)(C)N1 (stereo not drawn) [M268] | 5.2 | 10 µM |
| CC1(C)CC(NC(=O)[C@H](Cc2ccc3ccccc3c2)NC(=O)C(c2ccccc2)c2ccccc2)CC(C)(C)N1 [M272] | 5.2 | 9 µM |
| COc1cc(C=CC(=O)N[C@@H](Cc2ccc3ccccc3c2)C(=O)NC2CC(C)(C)NC(C)(C)C2)cc(OC)c1O [M274] | 4.7 | 36 µM |
| CC1(C)CC(NC(=O)[C@H](Cc2ccc3ccccc3c2)NC(=O)C(C2CCCCC2)C2CCCCC2)CC(C)(C)N1 [M276] | 5.3 | 4.6 µM |
| CC1(C)CC(NC(=O)[C@@H](NC(=N)CCCCCCCCCCCCC(=N)N[C@H](C(=O)NC2CC(C)(C)NC(C)(C)C2)C2Cc3ccccc3C2)C2Cc3ccccc3C2)CC(C)(C)N1 [M280] | 5.2 | 6 µM |
| CC1(C)CC(NC(=O)C(Cc2ccc3ccccc3c2)NC(=O)CCSSCCC(=O)NC(Cc2ccc3ccccc3c2)C(=O)NC2CC(C)(C)NC(C)(C)C2)CC(C)(C)N1 (stereo not drawn) [M286] | 5.1 | 24 µM |
| CC1(C)CC(NC(=O)C(Cc2ccc3ccccc3c2)NC(=O)OC(C)(C)C)CC(C)(C)N1 (stereo not drawn) [M288A] | 5.2 | >85 µM |
| CC1(C)CC(NC(=O)C(Cc2ccc3ccccc3c2)NC(=O)OC(C)(C)C)CC(C)(C)N1 (stereo not drawn) [M288] | 5.2 | Inact |
| CC1(C)CC(NC(=O)C(Cc2ccc3ccccc3c2)NC(=O)c2nc(Cl)c(Cl)c(N)c2Cl)CC(C)(C)N1 (stereo not drawn) [M302] | 5.2 | 3.5 µM |
| CC1CN(C(=O)[C@H](Cc2ccc3ccccc3c2)NC(=N)CCCCCCCCCCCCC(=N)N[C@@H](Cc2ccc3ccccc3c2)C(=O)N2CC(C)OC(C)C2)CC(C)O1 (stereo partly drawn) [M304] | 5.9 | 4.2 µM |
| CC1(C)CC(NC(=O)C(Cc2ccc3ccccc3c2)NC(=O)C=Cc2ccc(N)cc2)CC(C)(C)N1 (stereo not drawn) [M308] | 5.0 | >75 µM |
| CC1(C)CC(NC(=O)C(Cc2ccc3ccccc3c2)NC(=O)C=Cc2ccc(C(F)(F)F)cc2)CC(C)(C)N1 (stereo not drawn) [M312] | 5.5 | 3.2 µM |
| Cc1cc(NC(=O)C(Cc2ccc3ccccc3c2)NC(=O)C=Cc2c(F)c(F)c(F)c(F)c2F)c2ccccc2n1 (stereo not drawn) [M314] | 4.6 | 25 µM |

| Structure (SMILES) | GPI: pA2 for bradykinin antagonist activity on isolated guinea pig ileum [1] | MTT: ED50 for killing of SCLC strain SHP-77 in vitro (SCLC strain SHP-77) |
| --- | --- | --- |
| CC1(C)CC(NC(=O)C(Cc2ccc(OCc3ccccc3)cc2)NC(=O)C=Cc2c(F)c(F)c(F)c(F)c2F)CC(C)(C)N1 (stereo not drawn) [M318] | 5.1 | 3.6 µM |
| CN(C)c1ccc(C=CC(=O)NC(Cc2ccc3ccccc3c2)C(=O)NC2CC(C)(C)NC(C)(C)C2)cc1 (stereo not drawn) [M324] | 5.2 | 3 µM |
| CC1(C)CC(NC(=O)[C@H](Cc2csc3ccccc23)NC(=N)CCCCCCCCCCCCC(=N)N[C@@H](Cc2csc3ccccc23)C(=O)NC2CC(C)(C)NC(C)(C)C2)CC(C)(C)N1 [M436-2] | 5.8 | 4.5 µM |
| CN(C)c1ccc(C=CC(=O)NC(Cc2csc3ccccc23)C(=O)NC2CC(C)(C)NC(C)(C)C2)cc1 (stereo not drawn) [M448] | 5.7 | 2.7 µM |
| CN1CCN(NC(=O)[C@H](Cc2ccc3ccccc3c2)NC(=O)C=Cc2ccc(NC(=O)CCCCCCCCCCC(=O)O)cc2)CC1 [M480-1] | 5.1 | 45 µM |
| COC(=O)CCCCCCCCC(=O)Nc1ccc(C=CC(=O)NC(Cc2csc3ccccc23)C(=O)NC2CC(C)(C)NC(C)(C)C2)cc1 (stereo not drawn) [M506] | 4.9 | 11 µM |
| CC1(C)CC(NC(=O)C(Cc2ccc3ccccc3c2)NC(=O)COc2c(F)c(F)c(F)c(F)c2F)CC(C)(C)N1 (stereo not drawn) [M568] | 5.8 | 10 µM |
| CN(C(=O)C(Cc1ccc(OCc2c(Cl)cccc2Cl)cc1)NC(=O)C=Cc1c(F)c(F)c(F)c(F)c1F)C1CC(C)(C)NC(C)(C)C1 (stereo not drawn) [M592] | 4.9 | 1.5 µM |
| CCOC(=O)N1CCC(NC(=O)C(Cc2ccc3ccccc3c2)NC(=O)C=Cc2ccc(N)cc2)CC1 (stereo not drawn) [M604] | 4.5 | 43 µM |
| CC1(C)CC(NC(=O)C(Cc2cccc3ccccc23)NC(=O)C=Cc2ccc(NC(=O)CCCCCCCCCCC(=O)Nc3ccc(C=CC(=O)NC(Cc4cccc5ccccc45)C(=O)NC4CC(C)(C)NC(C)(C)C4)cc3)cc2)CC(C)(C)N1 (stereo not drawn) [M616] | 5.4 | 1.4 µM |
| CN(C(=O)C(Cc1ccc(OCc2c(Cl)cccc2Cl)cc1)NC(=O)C=Cc1c(F)c(F)c(F)c(F)c1F)C1CC(C)(C)N(C)C(C)(C)C1 (stereo not drawn) [M622] | 5.7 | 1.2 µM |
| CN(C)c1cccc2c(S(=O)(=O)NC(Cc3ccc(OCc4c(Cl)cccc4Cl)cc3)C(=O)N(C)C3CC(C)(C)NC(C)(C)C3)cccc12 (stereo not drawn) [M624] | 5.1 | 1.4 µM |
| CN(C(=O)C(Cc1ccc(OCc2c(Cl)cccc2Cl)cc1)NC(=O)C=Cc1cccnc1)C1CC(C)(C)NC(C)(C)C1 (stereo not drawn) [M626] | 4.8 | 3.7 µM |
| CN(C(=O)C(Cc1ccc(OCc2c(Cl)cccc2Cl)cc1)NC(=O)C=Cc1ccccc1)C1CC(C)(C)NC(C)(C)C1 (stereo not drawn) [M628] | 5.2 | 1.6 µM |
| CN(C)c1ccc(C=CC(=O)NC(Cc2ccc(OCc3c(Cl)cccc3Cl)cc2)C(=O)N(C)C2CC(C)(C)NC(C)(C)C2)cc1.O=C(O)C(F)(F)F (stereo not drawn) [M630, Dmac-OC2Y-Matp.TFA] | 5.0 | 1.6 µM |
| CN(C(=O)[C@H](Cc1ccc(OCc2c(Cl)cccc2Cl)cc1)NC(=O)c1nc(Cl)c(Cl)c(N)c1Cl)C1CC(C)(C)NC(C)(C)C1 [M632] | 5.4 | 1.4 µM |
